The results in this text go back to paper PMC9730820, “Near-infrared-dye labeled tumor vascular-targeted dimer GEBP11 peptide for image-guided surgery in gastric cancer” (Frontiers in Oncology, 2022).

One data set relates to SGC7901 cells. Nature of the data set: In vitro binding of Cy5.5 labeled GEBP11 probes, confocal fluorescence. Format: cell-based, human. The conditions noted are these: 1μM probe, 6h, 37°C, laser scanning confocal microscope. How it is done:
(§1) SGC7901 cells and HUVECs were cocultured as previously described ([18]). Co- HUVECs (co-cultured HUVECs), HUVECs and SGC7901 cells were harvested at log-growth phase and characterized by bench top fluorescent microscopy. Cells were incubated with 1μM GEBP11-Cy5.5 or (GEBP11)2-ACP-Cy5.5 for 6h at 37°C in a humidified atmosphere with 5% CO2. Binding affinity of the probes to cultured cells were detected by laser scanning confocal microscope (FV3000, Olympus, Japan). Nucleus were re-stained with ProLong™ Gold Antifade Mountant with DAPI (Invitrogen, USA) at room temperature. For binding specificity assessment, cells were pretreated with 25μM unlabeled GEBP11 for 30min at 37°C before incubating with the labeled probes.

The subject of another data set is HUVECs. The description is as above. Format: cell-based, human. The conditions noted are these: 1μM probe, 6h, 37°C, laser scanning confocal microscope. How it is done: as §1
Data set [1] concerns SGC7901-Luc orthotopic gastric cancer xenograft. Nature of the data set: Live NIR fluorescence imaging in orthotopic gastric cancer xenograft model. Here is the method: All animal experiments were conducted in compliance with protocols approved by the Institute of Animal Use Committee of Air Force Medical University. All gastric cancer xenograft models were established in 6–8 week old female athymic nude mice. The SGC7901-Luc or SGC7901-GFP cell suspension at a concentration of 2 × 10^6 cells/mL was prepared. For subcutaneous xenograft model, SGC7901-GFP cells suspension (100μL/mouse) were injected subcutaneously into the right upper limb (for in vivo binding affinity test) or lower flank of mouse (for in vivo biodistribution assay). The orthotopic gastric cancer xenograft models were established as described previously ([21]), In brief, open abdominal surgery was performed on the mice under general anesthesia, SGC7901-Luc cells suspension (100μL/mouse) were injected into the subserosa layer of the stomach.
Tumor growth was monitored by Caliper IVIS Lumina II (PerkinElmer, MA, USA). GFP fluorescence imaging was performed in subcutaneous xenograft model. Bioluminescence imaging (BLI) was performed to monitor tumor growth in the orthotopic xenograft models. Because of its higher penetrability and sensitivity, peritoneal metastasis can be visualized clearly as well. Before BLI was acquired, mice were injected with D-luciferin (150 mg/kg) by intraperitoneal injection and anesthetized with 2% isoflurane. Living Image software 4.7.3 (IVIS) was used to quantify bioluminescence signals.
Xenograft mice were injected with 200 ul GEBP11-Cy5.5, (GEBP11)2-ACP-Cy5.5 or free Cy5.5 (5 µM in PBS) via tail veins. Live NIR fluorescence imaging was performed at different time points. NIR Fluorescence intensity was quantified by region-of-interest (ROI) measurement using Living Image software 4.7.3 (IVIS).

Data set [2] has as its system Co-HUVECs (HUVECs co-cultured with SGC7901 cells). Briefly: In vitro binding of Cy5.5 labeled GEBP11 probes, confocal fluorescence, with competitive inhibition by unlabeled GEBP11. Format: cell-based, human. Particulars: 1μM probe, 6h, 37°C. How it is done:
as §1

Data set [3] is described as follows: Ex vivo biodistribution of NIR signal in tumor and main organs. Further details: species or system athymic nude mice. The conditions noted are these: mouse, in vivo, iv, 200 ul of 5 uM probe in PBS per mouse; ex vivo NIR signal, kidney relative to muscle, 24 h post-injection, n=3, bar label of Figure 3C. How it is done:
(§2) Subcutaneous tumor xenograft models were used to detect the biodistribution of NIR signals. Mice were euthanized at 24h after injection of the labeled probes or free Cy5.5. All assays were done in triplicates. Then tumor xenografts and main organs (heart, lung, kidney, bone, muscle, brain, spleen, liver, skin and intestines) were harvested. Living Image version 4.7.3 Software (IVIS) was used to quantify the NIR fluorescence intensity at selected ROIs. All ROI data were collected after subtracting background autofluorescence. Differences in the fluorescence intensities of the ROIs between different probes were statistically analyzed.

The test system of data set [4] is SGC7901 subcutaneous xenograft. The data set is described as above. The conditions noted are these: tumors and major organs harvested at 24h after injection. Further details: species or system athymic nude mice. Here is the method:
as §2

In data set [5] the test system is tumor vascular epithelial cells (CD31). Nature of the data set: Fluorescence microscopy co-localisation of probe with CD31 in resected tumor sections. The conditions noted are these: frozen sections of resected samples, FITC-labeled anti-mouse CD31, confocal fluorescence microscopic examination. How it is done:
Resected samples were embedded in optimum cutting temperature (OCT) compound (Leica, Germany), and 10μm-thick frozen tissue sections were cut on a cryostat microtome (Leica, Germany). The sections were fixed immediately with precooled isoacetone for 30min and stored at –20 °C. Hematoxylin and Eosin (H&E) staining was used for histological analysis. Tumor margins defined by H&E staining and NIR fluorescence were compared. All slides were scanned by using Pannoramic-250 Flash II slide-scanner (3D-Histech, Budapest, Hungary) and analyzed by Case viewer software (3D-Histech, Budapest, Hungary). Mouse tumor vascular endothelial cells were stained by FITC-labeled rat anti-mouse CD31 (89C2) antibody (CST, Boston, USA). Fluorescence microscopy was used to validate the colocalization of (GEBP11)2-ACP-Cy5.5 probe and tumor microvessel. Fluorescence microscopic images were acquired at 100x magnification by using Echo Revolve upside-down integrated fluorescence microscope (ECHO, USA).

Data set [6] has as its system SGC7901-Luc orthotopic gastric cancer xenograft. Briefly: Real-time NIR fluorescence imaging-guided resection. The class given is in vivo, athymic nude mice. The conditions noted are these: surgery 24h after probe injection, checked by BLI. How it is done:
Orthotopic gastric cancer xenograft mice were anesthetized with a ketamine/xylazine mixture via intraperitoneal injection 24h after injection of (GEBP11)2-ACP-Cy5.5 probe. Real-time NIR fluorescence imaging was used to guide the removal of the primary cancer lesion and potential metastatic lesions. After resection, all surgical specimens and surgical beds were examined by NIR fluorescence imaging to confirm complete resection. To compare the efficacy of the dimer GEBP11 NIR imaging, BLI imaging pictures were taken before and after resection, the findings of BLI imaging were kept blind to the researcher who performed the surgery.

Data set [7] has as its system SGC7901 subcutaneous xenograft. Briefly: Live NIR fluorescence imaging in subcutaneous gastric cancer xenograft model. The class given is in vivo, athymic nude mice. The text has this:
All mice were fed irradiated alfalfa-free rodent diet (Envigo Teklad, Madison, WI) to reduce background in stomach and gut for one week prior to the imaging experiments. The mice models were used for in vivo imaging and surgical procedures when xenograft diameter reached 5 to 10 mm.

SMILES strings stand for the structures. Where a SMILES comes first, the peptide text is derived from it. Bridges are numbered along the chain shown (N, C = ends). [ ]: non-standard residue; d: D form. The star is where a group is joined. X1 = CC[N+]1=C(C=CC=CC=C2N(CCCCCC(=O)*)c3ccc4c(S(=O)(=O)O)cc(S(=O)(=O)O)cc4c3C2(C)C)C(C)(C)c2c1ccc1c(S(=O)(=O)O)cc(S(=O)(=O)[O-])cc21; Ahx = NCCCCCC(=O)O

As for `CC[N+]1=C(C=CC=CC=C2N(CCCCCC(=O)N[C@H]3CSSC[C@@H](C(=O)NCCCCCC(=O)N[C@H]4CSSC[C@@H](C(=O)O)NC(=O)[C@H](CCSC)NC(=O)[C@H](CC(C)C)NC(=O)[C@H](Cc5ccc(O)cc5)NC(=O)[C@H](CO)NC(=O)[C@H](CC(N)=O)NC(=O)[C@H](CCCCN)NC(=O)[C@H]([C@@H](C)O)NC4=O)NC(=O)[C@H](CCSC)NC(=O)[C@H](CC(C)C)NC(=O)[C@H](Cc4ccc(O)cc4)NC(=O)[C@H](CO)NC(=O)[C@H](CC(N)=O)NC(=O)[C@H](CCCCN)NC(=O)[C@H]([C@@H](C)O)NC3=O)c3ccc4c(S(=O)(=O)O)cc(S(=O)(=O)O)cc4c3C2(C)C)C(C)(C)c2c1ccc1c(S(=O)(=O)O)cc(S(=O)(=O)[O-])cc21` [(GEBP11)2-ACP-Cy5.5] (X1-CTKNSYLMC[Ahx]CTKNSYLMC-OH; disulfide 1-9, 11-19; N-terminus and C-terminus assumed), the “Fluorescence signal on SGC7901 after incubation with probe” value in the data set on SGC7901 cells was “only scarce signal”. For the same compound, the “Fluorescence signal on HUVECs after incubation with probe” value with HUVECs was “only scarce signal”. For the same compound, the “Time at which signal intensity at the tumor site peaked” value in data set [1] (200 ul of 5 µM probe via tail vein, IVIS ROI) is reported as 24 h. Moreover, the “NIR fluorescence signal at the tumor sites at 6h compared with GEBP11-Cy5.5 or free Cy5.5” value in data set [1] (6h after injection) is “stronger NIR fluorescence signal”. Further, the “Signal intensity compared with the mono probe” value in [2] (confocal microscope) is listed as “much higher signal intensity than GEBP11-Cy5.5”. For the same compound, the “Fluorescence signal on Co-HUVECs after incubation with probe” value in data set [2] (laser scanning confocal microscope) is given as “strong fluorescence signal”. Further, the tissue to tissue ratio at 24 h in data set [3] is 1.41. For the same compound, the “Distribution of the NIR probe in tumor and organs, ex vivo fluorescence imaging” value in data set [4] is given as “Significant enrichment”. The “Co-localisation of probe fluorescence with CD31” value in data set [5] is “co-localize with CD31”. For the same compound, the “Residual cancer lesion after NIR-guided resection” value in data set [6] was “No residual cancer lesion could be detected”. The “Time at which NIR fluorescence signal at the tumor site peaked” value in data set [7] (200 ul of 5 µM probe in PBS via tail vein, observed 0-96 h, IVIS ROI) was 24 h.
Take `CCN1\C(=C/C=C/C=C/C2=[N+](CCCCCC(=O)O)c3ccc4c(S(=O)(=O)O)cc(S(=O)(=O)O)cc4c3C2(C)C)C(C)(C)c2c1ccc1c(S(=O)(=O)[O-])cc(S(=O)(=O)O)cc21` [Free Cy5.5, Cy5.5, reference compound]: the “Course of signal intensity at the tumor site” value in data set [1] (200 ul of 5 µM via tail vein) was “dropped rapidly after 6h”. In [4], the “Distribution of the NIR probe in tumor and organs, ex vivo fluorescence imaging” value is given as “found in the kidney, without enrichment in the tumor”. In addition, the “NIR signal at the tumor sites and site of accumulation, live imaging” value in data set [7] (200 ul of 5 µM in PBS via tail vein) is “accumulated mainly in the kidneys, and no significant signal was detected at the tumor sites”.
